ChEMBL document CHEMBL1201862, “PubChem BioAssay data set” (2004)
Calls of active or inactive are those of the source.

Legend:
[1] = target: 72 kDa type IV collagenase (Homo sapiens, UniProt P08253); test: Dose Response validation of uHTS RPN11 inhibitor hits using a MMP-2 Fluorescence assay.; type: functional
[2] = target: Prothrombin (Bos taurus, UniProt P00735); test: thrombin inhibition, dose response, biochemical, fluorescence polarization, uHTS hits (AID 602369); type: functional
[3] = target: 26S proteasome non-ATPase regulatory subunit 14 (Homo sapiens, UniProt O00487); test: inhibition of proteasome subunit RPN11 – biochemical, fluorescence polarization, uHTS hits, confirmation (AID 602368); type: functional
26S proteasome non-ATPase regulatory subunit 14, sequence (O00487 whole entry): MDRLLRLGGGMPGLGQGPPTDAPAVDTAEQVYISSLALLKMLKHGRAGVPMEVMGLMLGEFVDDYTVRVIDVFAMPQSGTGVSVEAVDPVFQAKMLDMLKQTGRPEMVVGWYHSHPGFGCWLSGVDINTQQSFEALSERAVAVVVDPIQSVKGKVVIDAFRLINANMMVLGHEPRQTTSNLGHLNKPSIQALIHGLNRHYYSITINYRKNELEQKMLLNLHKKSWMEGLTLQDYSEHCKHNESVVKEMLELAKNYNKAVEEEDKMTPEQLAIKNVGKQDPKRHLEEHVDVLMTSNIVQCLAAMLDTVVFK

[4] = system: H4; test: inhibitors of control reporter signal in H4 cells – cell-based, plate reader, dry powder samples, counter-screen for prion reporter project, dose response (AID 540255); type: functional; conditions: Homo sapiens
[5] = Shn3 3'UTR reporter inhibitors, dose response, cell-based, Clone20 osteoblasts, firefly luciferase, cherry-picked (AID 624132); type: functional;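 further: firefly luciferase luminescence from reporter carrying the Shn3 3'UTR in osteoblasts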
[6] = target: T1, Microphthalmia-associated transcription factor (Homo sapiens, UniProt O75030); test: TRPM1 promoter luciferase signal decrease, dose response, MITF inhibitor project, cell-based, SK-MEL-5, cherry-picked, set 3 (AID 493073); type: functional
T1 sequence (O75030 whole entry): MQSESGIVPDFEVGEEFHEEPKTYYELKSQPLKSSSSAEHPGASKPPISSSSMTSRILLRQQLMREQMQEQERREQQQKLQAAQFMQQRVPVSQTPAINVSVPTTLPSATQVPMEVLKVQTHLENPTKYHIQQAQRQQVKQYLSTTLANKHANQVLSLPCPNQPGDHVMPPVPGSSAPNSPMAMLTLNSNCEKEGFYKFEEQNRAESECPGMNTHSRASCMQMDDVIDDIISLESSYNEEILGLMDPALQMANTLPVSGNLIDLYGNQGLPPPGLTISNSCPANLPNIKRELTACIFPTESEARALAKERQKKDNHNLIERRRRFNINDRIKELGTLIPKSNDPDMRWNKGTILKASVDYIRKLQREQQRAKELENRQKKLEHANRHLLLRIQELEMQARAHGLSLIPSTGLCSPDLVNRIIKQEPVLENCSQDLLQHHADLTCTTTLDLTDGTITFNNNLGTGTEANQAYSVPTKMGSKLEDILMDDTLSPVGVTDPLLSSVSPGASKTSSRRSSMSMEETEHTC

[7] = target: Luciferin 4-monooxygenase (Photinus pyralis, UniProt P08659); test: firefly luciferase enzyme inhibitors, dose response, biochemical, dry powder samples, plate reader (AID 588451)
Luciferin 4-monooxygenase, sequence (P08659 whole entry): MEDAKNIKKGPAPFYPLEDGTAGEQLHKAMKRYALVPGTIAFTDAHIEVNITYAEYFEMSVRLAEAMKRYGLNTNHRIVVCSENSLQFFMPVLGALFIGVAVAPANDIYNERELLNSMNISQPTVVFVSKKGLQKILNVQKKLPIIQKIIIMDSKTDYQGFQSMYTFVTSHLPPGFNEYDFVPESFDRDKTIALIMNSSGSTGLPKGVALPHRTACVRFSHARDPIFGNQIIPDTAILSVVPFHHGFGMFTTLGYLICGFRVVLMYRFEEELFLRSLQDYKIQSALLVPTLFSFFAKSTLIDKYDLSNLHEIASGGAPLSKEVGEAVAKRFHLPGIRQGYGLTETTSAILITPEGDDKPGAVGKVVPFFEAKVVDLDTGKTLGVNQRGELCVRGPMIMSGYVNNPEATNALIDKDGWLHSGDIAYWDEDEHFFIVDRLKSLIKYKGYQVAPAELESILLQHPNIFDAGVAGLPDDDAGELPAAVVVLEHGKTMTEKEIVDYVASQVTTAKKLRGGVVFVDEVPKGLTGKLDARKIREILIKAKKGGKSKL

[8] = cytotoxicity in HEK-293T cells, dose response, cytotoxicity control for TCR NF-kB inhibitor project, luminescence, T-cell screen hits (AID 489026); type: functional, cell-based;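 further: cells exposed to compound about 14 hours before the viability readout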
[9] = target: T2, Heat shock factor protein 1 (Mus musculus, UniProt P38532); test: inhibition of MG132-induced HSE-luciferase signal, confirmation, cell-based, NIH3T3, luminescence, dose retest (AID 2382); type: functional;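 further: NIH3T3 fibroblasts with HSF1-driven luciferase reporter stressed by proteasome inhibitor MG132; luminescence from HSF1-driven luciferase expression after 8 hours of MG132 stress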
T2 sequence (P38532 whole entry): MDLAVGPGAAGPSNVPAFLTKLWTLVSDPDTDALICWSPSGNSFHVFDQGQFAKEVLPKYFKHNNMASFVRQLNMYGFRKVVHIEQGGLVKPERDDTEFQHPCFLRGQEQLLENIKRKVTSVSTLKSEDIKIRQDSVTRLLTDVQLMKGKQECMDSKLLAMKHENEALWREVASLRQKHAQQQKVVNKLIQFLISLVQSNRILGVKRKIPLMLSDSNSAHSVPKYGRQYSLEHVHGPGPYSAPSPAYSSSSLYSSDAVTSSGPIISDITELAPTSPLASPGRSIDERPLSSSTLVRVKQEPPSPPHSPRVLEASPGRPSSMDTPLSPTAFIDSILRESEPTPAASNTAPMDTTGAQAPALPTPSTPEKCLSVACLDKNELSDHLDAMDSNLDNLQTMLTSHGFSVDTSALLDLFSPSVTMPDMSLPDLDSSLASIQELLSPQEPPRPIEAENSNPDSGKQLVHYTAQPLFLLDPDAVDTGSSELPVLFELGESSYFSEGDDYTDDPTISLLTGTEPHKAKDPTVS

[10] = system: H4; test: Amyloid Precursor 5' UTR neuroblastoma cell reporter line Measured in Cell-Based System Using Plate Reader - 2078-04_Inhibitor_Dose_DryPowder_Activity. [Related pubchem assays (depositor defined):AID488894]; type: functional; conditions: Homo sapiens
[11] = system: H4; test: Inhibitors of Prion Protein 5' UTR mRNA Measured in Cell-Based System Using Plate Reader - 2078-01_Inhibitor_Dose_DryPowder_Activity. [Related pubchem assays (depositor defined):AID488894]; type: functional; conditions: Homo sapiens
[12] = target: T3, Orexin receptor type 2 (Homo sapiens, UniProt O43614); test: Counterscreen assay for antagonists of the orexin 1 receptor (OX1R; HCRTR1): Homogeneous Time Resolved Fluorescence (HTRF)-based cell-based dose response assay for antagonists of the orexin 2 receptor (OX2R; HCRTR2), run by assay provider.; type: functional
T3 sequence (O43614 whole entry): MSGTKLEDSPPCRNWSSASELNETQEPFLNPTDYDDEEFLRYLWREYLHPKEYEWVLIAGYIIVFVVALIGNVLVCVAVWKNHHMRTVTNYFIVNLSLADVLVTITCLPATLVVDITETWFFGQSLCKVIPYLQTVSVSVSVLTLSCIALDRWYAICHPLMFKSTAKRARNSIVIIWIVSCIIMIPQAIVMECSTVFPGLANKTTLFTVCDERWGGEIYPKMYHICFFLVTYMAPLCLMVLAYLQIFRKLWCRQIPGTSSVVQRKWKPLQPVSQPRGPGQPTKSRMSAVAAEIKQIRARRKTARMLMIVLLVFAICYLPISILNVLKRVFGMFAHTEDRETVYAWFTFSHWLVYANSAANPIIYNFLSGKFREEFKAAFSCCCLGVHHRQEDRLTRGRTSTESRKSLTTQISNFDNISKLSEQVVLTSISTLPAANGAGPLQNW

[13] = target: T4, Orexin/Hypocretin receptor type 1 (Homo sapiens, UniProt O43613); test: Fluorescence-based cell-based high throughput dose response assay for antagonists of the orexin 1 receptor (OX1R; HCRTR1). [Related pubchem assays (depositor defined):AID434989, AID435008, AID463079, AID485270, AID492963, AID492964, AID492965, AID493232, AID504717, AID504718]; type: functional
T4 sequence (O43613 whole entry): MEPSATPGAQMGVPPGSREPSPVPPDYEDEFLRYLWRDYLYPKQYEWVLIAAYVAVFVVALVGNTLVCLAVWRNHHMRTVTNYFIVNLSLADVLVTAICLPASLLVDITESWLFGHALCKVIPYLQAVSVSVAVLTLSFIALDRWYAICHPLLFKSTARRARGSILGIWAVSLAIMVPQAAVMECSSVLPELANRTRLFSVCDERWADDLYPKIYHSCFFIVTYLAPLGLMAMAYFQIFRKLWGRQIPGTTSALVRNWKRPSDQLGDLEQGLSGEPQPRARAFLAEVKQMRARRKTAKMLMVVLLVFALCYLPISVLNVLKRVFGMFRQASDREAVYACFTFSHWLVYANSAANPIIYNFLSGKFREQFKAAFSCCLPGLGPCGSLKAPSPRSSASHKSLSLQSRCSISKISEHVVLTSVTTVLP

[14] = target: T4, Orexin/Hypocretin receptor type 1; test: Homogeneous Time Resolved Fluorescence (HTRF)-based cell-based high throughput dose response assay for antagonists of the orexin 1 receptor (OX1R; HCRTR1). [Related pubchem assays (depositor defined):AID434989, AID435008, AID463079, AID485270, AID492963, AID492964, AID492965, AID493232, AID504717, AID504718]; type: functional
[15] = system: CHO-K1; test: Counterscreen for antagonists of the orexin 1 receptor (OX1R; HCRTR1): Homogeneous time resolved fluorescence (HTRF)-based cell-based dose response assay to identify antagonists of the parental CHO-K1 cell line. [Related pubchem assays (depositor defined):AID434989, AID435008, AID463079, AID485270, AID492963, AID492964, AID492965, AID493232, AID504699, AID504701]; type: functional; conditions: Cricetulus griseus;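 further: potency for inhibition of ATP-stimulated IP1 production as antagonists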
[16] = Counterscreen for antagonists of the orexin 1 receptor (OX1R; HCRTR1): Fluorescence-based cell-based high throughput dose response assay to identify antagonists of the parental CHO cell line. [Related pubchem assays (depositor defined):AID434989, AID435008, AID463079, AID485270, AID492963, AID492964, AID492965, AID493232, AID504699, AID504701]; type: functional
[17] = target: T3, Orexin receptor type 2; test: Counterscreen assay for antagonists of the orexin 1 receptor (OX1R; HCRTR1): Fluorescence-based cell-based dose response assay for antagonists of the orexin 2 receptor (OX2R; HCRTR2), run by assay provider.; type: functional
[18] = target: Serine/threonine-protein kinase pim-1 (Homo sapiens, UniProt P11309); type: functional
Serine/threonine-protein kinase pim-1, sequence (P11309 whole entry): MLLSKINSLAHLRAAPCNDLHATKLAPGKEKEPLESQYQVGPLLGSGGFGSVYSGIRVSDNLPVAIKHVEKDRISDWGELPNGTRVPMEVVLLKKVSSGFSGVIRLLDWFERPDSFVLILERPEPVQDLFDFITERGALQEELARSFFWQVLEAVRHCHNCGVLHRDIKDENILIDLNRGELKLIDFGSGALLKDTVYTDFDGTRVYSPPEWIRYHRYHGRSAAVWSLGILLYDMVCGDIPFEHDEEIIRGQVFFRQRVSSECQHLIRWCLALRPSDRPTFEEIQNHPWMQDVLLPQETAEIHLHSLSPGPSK

[19] = target: Serine/threonine-protein kinase pim-3 (Homo sapiens, UniProt Q86V86); type: functional;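 further: value obtained as one member of a broad kinase panel profiling effort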
[20] = target: Aurora kinase B (Homo sapiens, UniProt Q96GD4); type: functional
Aurora kinase B, sequence (Q96GD4 whole entry): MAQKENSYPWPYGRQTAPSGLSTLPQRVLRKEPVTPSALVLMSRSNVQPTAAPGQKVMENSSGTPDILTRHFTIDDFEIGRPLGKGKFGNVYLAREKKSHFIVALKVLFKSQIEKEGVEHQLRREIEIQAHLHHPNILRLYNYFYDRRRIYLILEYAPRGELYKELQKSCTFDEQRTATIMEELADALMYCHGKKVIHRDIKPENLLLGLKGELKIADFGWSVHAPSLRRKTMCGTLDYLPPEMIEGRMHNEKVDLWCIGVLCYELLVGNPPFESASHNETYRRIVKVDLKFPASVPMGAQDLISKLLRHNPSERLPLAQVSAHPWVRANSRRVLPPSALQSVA

[21] = target: Serine/threonine-protein kinase 17A (Homo sapiens, UniProt Q9UEE5); type: functional
Serine/threonine-protein kinase 17A, sequence (Q9UEE5 whole entry): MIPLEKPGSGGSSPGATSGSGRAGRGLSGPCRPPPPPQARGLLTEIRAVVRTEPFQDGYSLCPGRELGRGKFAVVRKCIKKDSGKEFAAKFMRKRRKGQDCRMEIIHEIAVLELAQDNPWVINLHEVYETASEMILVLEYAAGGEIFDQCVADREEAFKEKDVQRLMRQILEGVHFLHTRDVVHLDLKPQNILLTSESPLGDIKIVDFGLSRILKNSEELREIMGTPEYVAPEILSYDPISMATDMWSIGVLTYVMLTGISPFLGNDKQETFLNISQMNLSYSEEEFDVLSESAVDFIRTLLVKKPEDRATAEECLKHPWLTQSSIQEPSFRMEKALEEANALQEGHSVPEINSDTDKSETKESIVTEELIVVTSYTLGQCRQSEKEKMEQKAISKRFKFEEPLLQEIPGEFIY

[22] = target: DNA dC->dU-editing enzyme APOBEC-3A (Homo sapiens, UniProt P31941); test: SAR analysis of small molecule inhibitors of APOBEC3A DNA Deaminase via a fluorescence-based single-stranded DNA deaminase assay.; type: functional; conditions: read-out: IC50_Mean
DNA dC->dU-editing enzyme APOBEC-3A, sequence (P31941 whole entry): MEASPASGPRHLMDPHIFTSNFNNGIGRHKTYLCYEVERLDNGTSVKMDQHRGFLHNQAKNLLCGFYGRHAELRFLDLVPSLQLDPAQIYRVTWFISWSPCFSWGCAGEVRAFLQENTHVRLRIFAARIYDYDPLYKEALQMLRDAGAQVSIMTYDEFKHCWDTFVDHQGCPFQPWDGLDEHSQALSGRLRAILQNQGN

[23] = target: DNA dC->dU-editing enzyme APOBEC-3G (Homo sapiens, UniProt Q9HC16); test: APOBEC3G deaminase inhibitors, SAR follow-up, biochemical, fluorescence, single-stranded DNA substrate (AID 602136); type: functional; conditions: read-out: IC50_Mean
[24] = target: Melanin-concentrating hormone receptor 1 (Homo sapiens, UniProt Q99705); test: Late-stage fluorescence-based counterscreen for antagonists of the G-protein coupled receptor 7 (GPR7): cell-based dose response assay to identify antagonists of the melanin-concentrating hormone receptor 1 (MCHR1) Set 5.; type: functional
Melanin-concentrating hormone receptor 1, sequence (Q99705 whole entry): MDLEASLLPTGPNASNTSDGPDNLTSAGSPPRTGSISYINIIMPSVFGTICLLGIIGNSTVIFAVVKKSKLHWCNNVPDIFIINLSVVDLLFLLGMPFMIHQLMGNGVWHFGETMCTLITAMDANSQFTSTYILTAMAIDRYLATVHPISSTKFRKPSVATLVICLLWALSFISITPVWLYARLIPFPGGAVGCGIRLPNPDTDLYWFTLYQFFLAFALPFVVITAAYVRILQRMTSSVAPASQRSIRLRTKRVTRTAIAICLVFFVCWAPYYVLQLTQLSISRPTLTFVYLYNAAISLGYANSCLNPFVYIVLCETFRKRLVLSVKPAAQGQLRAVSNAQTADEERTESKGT

[25] = target: T5, Neuropeptides B/W receptor type 1 (Homo sapiens, UniProt P48145); test: GPR7 antagonist potency, late-stage follow-up, cell-based, fluorescence, dose response, set 5 (AID 588566); type: functional
T5 sequence (P48145 whole entry): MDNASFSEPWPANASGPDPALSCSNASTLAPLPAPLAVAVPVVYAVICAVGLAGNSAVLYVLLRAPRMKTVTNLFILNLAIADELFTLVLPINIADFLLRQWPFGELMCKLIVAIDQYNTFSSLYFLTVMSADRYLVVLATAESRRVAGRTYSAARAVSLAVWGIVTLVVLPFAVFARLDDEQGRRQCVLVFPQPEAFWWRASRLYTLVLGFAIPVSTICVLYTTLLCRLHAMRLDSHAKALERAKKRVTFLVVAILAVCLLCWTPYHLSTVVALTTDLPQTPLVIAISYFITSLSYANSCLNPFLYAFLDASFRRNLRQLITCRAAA

[26] = target: Cyclin-dependent kinase 19 (Homo sapiens, UniProt Q9BWU1); test: Navigating the Kinome. Panel member name: CDC2L6; type: functional
Cyclin-dependent kinase 19, sequence (Q9BWU1 whole entry): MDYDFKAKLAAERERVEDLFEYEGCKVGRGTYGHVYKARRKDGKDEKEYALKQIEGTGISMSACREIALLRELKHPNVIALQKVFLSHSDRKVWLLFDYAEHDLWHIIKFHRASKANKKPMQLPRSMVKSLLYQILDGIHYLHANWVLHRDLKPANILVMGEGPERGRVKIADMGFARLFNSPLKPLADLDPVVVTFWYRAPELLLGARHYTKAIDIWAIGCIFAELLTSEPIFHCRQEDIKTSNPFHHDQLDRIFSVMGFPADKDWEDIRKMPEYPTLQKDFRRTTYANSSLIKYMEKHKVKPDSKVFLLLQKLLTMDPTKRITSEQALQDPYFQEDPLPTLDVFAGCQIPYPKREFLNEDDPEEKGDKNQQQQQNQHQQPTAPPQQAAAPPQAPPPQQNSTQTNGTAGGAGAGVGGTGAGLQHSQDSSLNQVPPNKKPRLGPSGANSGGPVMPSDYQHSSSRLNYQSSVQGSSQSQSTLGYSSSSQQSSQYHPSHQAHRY

[27] = target: Cell division cycle 7-related protein kinase (Homo sapiens, UniProt O00311); type: functional;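 further: value obtained from a kinome-wide kinase panel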
[28] = target: Aspartyl aminopeptidase (Plasmodium falciparum 3D7, UniProt Q8I2J3)
Aspartyl aminopeptidase, sequence (Q8I2J3 whole entry): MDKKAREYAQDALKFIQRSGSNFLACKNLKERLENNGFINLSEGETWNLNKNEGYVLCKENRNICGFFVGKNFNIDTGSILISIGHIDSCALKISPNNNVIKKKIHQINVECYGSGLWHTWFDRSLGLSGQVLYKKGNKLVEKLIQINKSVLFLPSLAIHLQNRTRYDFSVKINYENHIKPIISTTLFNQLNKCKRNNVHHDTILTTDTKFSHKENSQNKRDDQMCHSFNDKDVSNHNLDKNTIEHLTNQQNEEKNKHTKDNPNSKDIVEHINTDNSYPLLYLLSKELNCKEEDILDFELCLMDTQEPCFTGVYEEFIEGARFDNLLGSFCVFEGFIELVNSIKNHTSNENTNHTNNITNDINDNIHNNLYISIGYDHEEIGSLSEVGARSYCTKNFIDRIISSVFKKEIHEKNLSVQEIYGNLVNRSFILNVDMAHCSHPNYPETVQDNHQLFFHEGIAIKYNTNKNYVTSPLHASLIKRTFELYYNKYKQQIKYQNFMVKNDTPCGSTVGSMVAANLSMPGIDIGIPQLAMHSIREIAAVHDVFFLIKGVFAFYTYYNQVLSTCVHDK

[29] = system: SN12K1; test: cells; type: functional; conditions: Homo sapiens
[30] = target: T6, High affinity choline transporter 1 (Homo sapiens, UniProt Q9GZV3); test: CHT inhibitors, dose response, cell-based, 5-point CRC, membrane potential dye (AID 504840); type: functional
T6 sequence (Q9GZV3 whole entry): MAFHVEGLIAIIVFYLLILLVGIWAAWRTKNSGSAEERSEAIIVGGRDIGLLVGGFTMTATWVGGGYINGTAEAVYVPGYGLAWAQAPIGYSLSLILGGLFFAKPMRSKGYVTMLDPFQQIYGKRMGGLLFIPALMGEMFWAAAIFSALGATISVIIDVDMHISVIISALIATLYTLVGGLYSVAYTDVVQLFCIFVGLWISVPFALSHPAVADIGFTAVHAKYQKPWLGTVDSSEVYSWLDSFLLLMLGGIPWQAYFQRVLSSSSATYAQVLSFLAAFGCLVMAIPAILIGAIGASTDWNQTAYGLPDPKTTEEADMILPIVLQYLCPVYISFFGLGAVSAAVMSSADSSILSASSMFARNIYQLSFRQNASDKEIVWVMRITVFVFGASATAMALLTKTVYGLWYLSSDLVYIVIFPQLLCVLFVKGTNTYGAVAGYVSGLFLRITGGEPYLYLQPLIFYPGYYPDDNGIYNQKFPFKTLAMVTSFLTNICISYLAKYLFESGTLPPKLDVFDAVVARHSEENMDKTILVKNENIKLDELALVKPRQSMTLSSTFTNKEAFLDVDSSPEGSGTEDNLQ

[31] = target: Procathepsin L (Homo sapiens, UniProt P07711)
[32] = target: T6, High affinity choline transporter 1; test: CHT inhibitors, dose response, cell-based, 10-point CRC, membrane potential dye (AID 588401); type: functional;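 further: membrane potential dye fluorescence of choline-evoked depolarization via CHT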
[33] = system: P388; test: cells; type: functional; conditions: Mus musculus
[34] = system: P388/ADR; test: cells; type: functional; conditions: Mus musculus

Cc1ccc(-n2c(-c3ccco3)nc3nc4ccccc4nc32)cc1
IC50 [1]: > 100 µM (inactive)
IC50 [2]: 69 µM (active)
IC50 [3]: 24.1 µM (active)

Cc1ccc(NC(=O)c2cc3ccccc3oc2=O)cc1S(=O)(=O)N(C)C
AC50 [4]: < 0.02 µM (active)
AC50 [5]: 1.29 µM (active)
AC50 [6]: 0.03 µM (active)
AC50 [7]: 0.0893 µM (active)
IC50 [8]: > 80 µM (inactive)
EC50 [9]: < 0.16 µM (active)
AC50 [10]: 0.00125 µM (active)
AC50 [11]: 0.011 µM (active)

O=C(c1cccc(N2CCNC2=O)c1)N1CCCC(Nc2cccc(F)c2)C1 (centres undefined)
IC50 [12]: > 50 µM (inactive)
IC50 [13]: 9.83 µM (active)
IC50 [14]: 0.922 µM (active)
IC50 [15]: > 66.2 µM (inactive)
IC50 [16]: > 49.7 µM (inactive)
IC50 [17]: > 88.8 µM (inactive)

NC(=O)c1ccc2c(ccn2-c2cccc(Cl)c2)c1
Ki [18]: 3.98 µM (active)
Ki [19]: 3.98 µM (active)

CN(C)CC(=O)Nc1n[nH]c2cc(-c3cn(Cc4ccccc4)nn3)ccc12
Ki [20]: 3.16 µM (active)
Ki [21]: 1 µM (active)

Clc1cnc2[nH]c(SCc3nnc(-c4cccs4)o3)nc2c1
IC50 [22]: > 99 µM (inactive)
IC50 [23]: 20.6 µM (inactive)

COc1ccc(Sc2cnn(Cc3cccc4ccccc34)c(=O)c2Cl)cc1
IC50 [24]: 18.7 µM (inactive)
IC50 [25]: 1.19 µM (active)

O=c1cc(-c2ccncc2)[nH]n1-c1ccc([N+](=O)[O-])cc1
Ki [26]: > 100 µM (inactive)
Ki [27]: 0.501 µM (active)

O=CN/C=C/c1cc(O)ccc1O [ERBSTATIN]
IC50 [28]: 3.72 µM (active)
GI50 [29]: 16.2 µM (inactive)
IC50 [30]: 4.17 µM (active)
IC50 [31]: > 59.6 µM (not active)
IC50 [32]: 0.751 µM (active)
GI50 [33]: 2.1 µM (inactive)
GI50 [34]: 2.02 µM (inactive)
